Results: patent US6011000A, “Compositions for the treatment of blood disorders” (priority 1995, dated 2000)

How the values were obtained:
[1] = tested on: fetal globin (gamma globin); assay: Fetal globin expression in erythroid progenitor cells from cord blood; format: cell-based, human
Description: Compositions were tested for activity in inducing fetal globin expression and protein production in erythroid progenitor cells cultured from human cord blood and analyzed as described by S. P. Perrine et al. (Blood 74: 454-60, 1989). Briefly, mononuclear cells were cultured in IMDM with 30% fetal calf serum and 2 units erythropoietin per ml to induce erythroid differentiation. Colonies were harvested on day 12-13, incubated with radio-labelled (^3 H) leucine, and further incubated in leucine-free media, still in the presence of compounds, overnight. Globin composition in the erythroid cells was analyzed by laser densitometry of electrophoretically separated globin chains stained with Coomassie blue, and by autoradiography. Treated cells were incubated for 12-13 days (Table 2, Experiments A and B) or overnight (Table 2, Experiment C) in the presence of the indicated compounds and compared to untreated control cells cultured from the same human subject.

[2] = tested on: erythroid cells (peripheral blood); assay: Erythroid cell viability by fluorescent staining (Calcein-AM), FIG. 2; format: cell-based, human; conditions: 0.5 mM, vs untreated controls
Description: FIG. 2 Peripheral blood cell viability after incubation with arginine butyrate, dihydrocinnamic acid, phenoxyacetic acid and butyric acid ethyl ester.
Compositions were tested for the ability to directly stimulate erythroid cell growth. Cell growth stimulation is a useful property for an agent to be used to treat anemias and distinguishes such agents from the cytotoxic drugs currently being tested for treatment of hemoglobinopathies. Cell viability analyses were performed using fluorescent staining to detect living cells. Cells were in log phase of growth in 6-well dishes when used in proliferation assays. For enumeration of living cells, wells were washed once with medium to remove nonadherent or dead cells. Remaining live cells were labeled with 2 μM 2',7'-bis-(carboxyethyl)-5-(and 6)-carboxy-fluorescein acetoxy-methyl ester (Calcein-AM) (Molecular Probes; Eugene, Oreg.) for 20 minutes at 37° C. and washed once. Fluorescence intensity of live cells was read on a CytoFluor 2300 Fluorescence Plate Scanner (Millipore; Bedford, Mass.) at excitation and emission wavelengths of 485 and 530 nm, respectively. The fluorescence intensity of a well was proportional to the number of living cells in the well. Background fluorescence was measured separately for each plate and subtracted from all readings. Each experiment was performed in triplicate or quadruplicate. The standard deviation (SD) of repetitive readings was less than 30% of the mean. Results are depicted in FIG. 2.

K562 cells = assay: Dose response of cell growth, trypan blue exclusion (FIG. 3); format: cell-based, human; conditions: up to 2.0 mM, day 4
Description: FIG. 3 Cell viability as determined by the comparative numbers of total and viable K562 cells in the presence of increasing concentrations of (A) phenoxyacetic acid, (B) dihydrocinnamic acid, (C) butyric acid ethyl ester, (D) arginine butyrate, and (E) isobutyramide.
Dose response curves at dosages of up to 2.0 mM were also determined for phenoxyacetic acid (PAA; FIG. 3A), dihydrocinnamic acid (DHC; FIG. 3B), butyric acid ethyl ester (BAEE; FIG. 3C), arginine butyrate (AB; FIG. 3D) and isobutyramide (IBT; FIG. 3E). Cells were counted on day 4 of treatment and viable cells identified by trypan blue exclusion.

human erythroid cells = assay: DNA fragmentation by flow cytometry (degradation of DNA); format: cell-based
Description: Such activities might limit their utility for treatment of anemias such as occur in thalassemia, but alternatively would be useful for anticancer effects. To determine cell viability, human erythroid cells were cultured in the presence and absence of these compounds for 4 days and the amount of DNA fragmentation which occurred was measured.
Flow cytometric determination of DNA profiles and DNA fragmentation were determined. Cytometric analysis was performed with a FACScan (Becton Dickenson Instruments; Columbia, Md.). The data analysis and display were performed using the Cell-Fit software program. Approximately 0.5×10^6 cells were washed twice with PBS and resuspended in 1 ml of 1% sodium citrate, 0.1% Triton X-100 and 50 μg of propidium iodide/ml. Resulting permeabilized cells were kept in the dark at 4° C. overnight before DNA profile or DNA fragmentation analysis (Table 4).

K562 = assay: Growth of human erythroid cell line K562; format: cell-based; conditions: for growth of K562: 0.5 mM, over 3 days
Description: Such activities might limit their utility for treatment of anemias such as occur in thalassemia, but alternatively would be useful for anticancer effects. […]
Cell viability analyses were performed using fluorescent staining to detect living cells. Cells were in log phase of growth in 6-well dishes when used in proliferation assays. For enumeration of living cells, wells were washed once with medium to remove nonadherent or dead cells. Remaining live cells were labeled with Calcein-AM for 20 minutes at 37° C. and washed once. Fluorescence intensity of adherent live cells was read on a CytoFluor 2300 Fluorescence Plate Scanner (Millipore; Bedford, Mass.) at excitation and emission wavelengths of 485 and 530 nm, respectively. The fluorescence intensity of a well was proportional to the number of living cells in the well. Background fluorescence was measured separately for each plate and subtracted from all readings. Each experiment was performed in triplicate or quadruplicate. The standard deviation (SD) of repetitive readings was less than 30% of the mean.
At higher concentrations, still easily achievable in vivo, arginine butyrate (0.5 mM) and dihydrocinnamic acid (greater than 0.5 mM) inhibited growth of this tumor cell line by approximately 50%. Therefore, these compounds are also useful as anti-tumor agents.

[3] = tested on: fetal globin mRNA (human erythroleukemia cells); assay: Fetal globin mRNA in erythroleukemia cells (primer extension); format: cell-based
Description: Compounds were tested for increased expression of the human globin genes in human erythroid cells. In addition, as the cell line being tested is a tumor cell line, the assay determines if differentiation, a growth inhibitory effect on cancer cells, is induced by the compounds tested. Human erythroleukemia cells were cultured in RPMI media with 10% fetal calf serum alone or with treatment with various compounds for 4 days. Globin MRNA was quantitated by primer extension analysis. Fetal globin mRNA was compared to the amount of fetal globin mRNA produced in untreated cells during the same culture period. The quantitation was expressed as a percent of alpha globin MRNA which was constant. Results are expressed proportional to α-globin mRNA (Table 3).

[4] = tested on: BFU-e (burst forming unit-erythroid); assay: BFU-e stimulation (colony growth) in cultured peripheral blood mononuclear cells; format: cell-based; conditions: Homo sapiens, PBMC; 0.1 mM; read-out: more BFU-e colonies from the same number of mononuclear cells than control cultures
Description: Peripheral blood was collected from normal volunteers and patients with anemia due to sickle cell disease or thalassemia Mononuclear cells were isolated by Ficoll-Hypaque (Pharmacia Biotech; Piscataway, N.J.) centrifugation and cultured in Iscove's Modified Dulbecco's Media (IMDM; GIBCO/BRL; Grand Island, N.Y.) supplemented with 10% fetal calf serum, 300 μg/ml glutamine, 3 units/ml IL 3 (Amgen; Thousand Oaks, Calif.), and 2 units/ml erythropoietin (Terry Fox Labs; Vancouver, B.C.). Chemical compounds were obtained from Sigma Chemical (St. Louis, Mo.) or Aldrich Chemical (Milwaukee, Wis.), unless otherwise indicated, and formulated into pharmaceutical compositions by dissolving in aqueous solutions of media or sterile water pH adjusted to about 7.4. Solutions were sterilized by passage at least once through 0.22 micron Nalgene filters and added to cell cultures at final concentrations that are pharmaceutically achievable in vivo (typically between about 0.1 mM to 2.0 MM). Cells were incubated with compounds for between 13-14 days at 37° C. in humidified 5% CO2, and fed and passed, as necessary. Colony growth, proportion of fetal globin-expressing cells and amounts of fetal globin production were assayed. Results are presented in Table 1 as BFU-e stimulation (colony growth). […]

anemic baboon = assay: In vivo reticulocyte proliferation, globin expression and blood counts in anemic (phlebotomized) baboons; conditions: 4 days
Description: Experiments were performed to determine if administration of the chemical compositions could induce fetal globin gene expression in an in vivo model similar to humans (S. P. Perrine et al., Brit. J. Haematol. 88:555-61, 1994). Briefly, chemicals were prepared as sterile pharmaceutical solutions in pH adjusted sterile water. A variety of chemical compositions were administered sequentially to some baboons. After administration of one compound, a wash-out period with no compound administration was maintained until reticulocytes returned to base line prior to administration of the next compound. This was done, at least partly, to compare the magnitude of response which occurred within the same individual animal to different compounds.
Briefly, juvenile female baboons (2 years old) were catheterized with arterial and venous catheters and phlebotomized gradually every day to maintain a moderate anemia of 7.0 to 7.5 grams hemoglobin/dl. Fetal reticulocytes, the newly produced red blood cells containing fetal globin, were assayed using a monoclonal antibody against fetal globin (HbF) as described by G. Dover et al. (Blood 67:735-38, 1986). Briefly, blood was stained with two antibodies, one specific for reticulocytes and another against fetal globin protein. The amount of antibody bound cells was determined by FACS analysis. Globin chain synthesis was assayed as described by J. B. Clegg et al. (J. Mol. Biol. 19:91-108, 1966). Briefly, reticulocytes were radio-labeled with ^3 H-leucine which was incorporated in equal proportions into actively synthesized globin chains. After incubation in leucine-free media, cells were washed, and globin proteins were separated and purified by column chromatography. Radioactivity incorporated into each peak is compared and the ratios of gamma to gamma plus beta globin calculated. Each animal served as its own control with baseline monitoring assays performed for 4-6 weeks before any drug was administered. Phlebotomy was continued daily, so that peripheral HbF levels in the animals were not considered to be accurate over the short treatment time-frames and were not monitored. Safety monitoring was performed by frequent physical examinations, quantitation of food eaten, activity and frequent chemistry and hematology monitoring. Complete blood counts were assayed before, during and after treatment. Results presented were not adjusted to account for the daily phlebotomy.

[5] = tested on: hemoglobin polymerization; conditions: artificially deoxygenated blood; cited from earlier work
[6] = Exp. A, 0.1 mM, 12-13 days, untreated 76.0%
[7] = Exp. C, 0.1 mM, overnight, untreated 52.0%

Structure (SMILES): CCCC(=O)OCC [BAEE, butyric acid ethyl ester]
- Gamma/(Gamma + Beta) [1, 6]: 89.5%
- Gamma/(Gamma + Beta) ([1]; Exp. B, 0.2 mM, 12-13 days, untreated 25.4%, 27.5%): 74.0%
- Gamma/(Gamma + Beta) [1, 7]: 64.6%
- erythroid cell growth and proliferation [2]: either had no effect or stimulated erythroid cell growth and proliferation
- proliferation (K562 cells): did not significantly inhibit proliferation
- proportion of degraded DNA (human erythroid cells; 1.0 mM to 2.0 mM, untreated 26%): 13.8%
- Degraded DNA (human erythroid cells; 2.0 mM, 4 days, control 26%, 22%): 13.8%
- DNA fragmentation / cell viability / DNA integrity (human erythroid cells; DNA fragmentation assays): reduce DNA fragmentation
- growth of K562 (K562): either did not inhibit, or slightly enhanced growth
- induction of fetal globin mRNA [3]: significantly increased the induction of fetal globin MRNA
- stimulation of fetal globin expression relative to AB ([3]; 1.0 mM): over two times greater than even AB alone
- Gamma/Alpha ([3]; 1.0 mM, 4 days, untreated 0.46): 0.90
- activation at 1000 µM ([3]; Homo sapiens, 96 h, 1.0 mM, 4 days, read-out: Gamma Globin mRNA (increase)): 44%

Structure (SMILES): O=C(O)CCc1ccccc1 [DHC, Dihydrocinnamic acid]
- Gamma/(Gamma + Beta) [1, 6]: 88.0%
- Gamma/(Gamma + Beta) [1, 7]: 76.0%
- Gamma/(Gamma + Beta) ([1]; Exp. C, 0.2 mM, overnight, untreated 52.0%): 71.9%
- Gamma/(Gamma + Beta) ([1]; Exp. C, 0.5 mM, overnight, untreated 52.0%): 71.3%
- erythroid cell growth and proliferation [2]: either had no effect or stimulated erythroid cell growth and proliferation
- growth of K562 (K562): either did not inhibit, or slightly enhanced growth
- growth inhibition of K562 (K562; greater than 0.5 mM): approximately 50%
- activation at 100 µM [4]: 124%
- red blood cell count (anemic baboon; 1,000 mg/kg/day i.v., from 2.3): 2.73 10^6 cells/μl
- Total hemoglobin (anemic baboon; 1,000 mg/kg/day i.v., from 6.6): 7.3 grams/dl
- packed red blood cell volume (anemic baboon; 1,000 mg/kg/day i.v., from 20.9%): 22.7 % of the blood
- Fetal reticulocytes (anemic baboon; 300 to 500 mg/kg per day infused, from 10%): 17%

Structure (SMILES): CC(C)(Oc1ccc(Cl)cc1)C(=O)O [clofibric acid]
- inhibition of polymerization [5]: inhibit polymerization

Structure (SMILES): O=C(O)COc1ccc(Cl)cc1 [p-chloro phenoxy acetic acid]
- inhibition of polymerization [5]: inhibit polymerization
